# Assays:
# NIH 3T3 = assay: Titer (transduction) of chimeric envelope constructs on NIH 3T3 cells; format: cell-based, mouse; conditions: qualitative; FIG. 12
# Experimental: Transfections were done by calcium phosphate precipitation method, described by Graham and van der Eb (Graham and van der Eb, 1973) leaving the calcium precipitate on the cells for 24 hours. 293T cells were transfected using 8 μg of envelope expression plasmid, 2 μg gagpol expression plasmid (Morita et al., 2000) and 1 μg of an EGFP expressing plasmid. EGFP was included as a visual aid to determine the success of transfections. Medium on the transfected cells was renewed every day until it was used for transduction, usually between 48 and 72 hours after transfection, depending on the number of green fluorescing cells.
# The day before transduction, medium was changed from fetal calf serum to newborn calf serum containing medium. Semi-packaging cells (Bahrami et al., 2003) were seeded at concentration of 10^4 cells/cm^2 24 hours before transduction.
# Supernatant from transfected cells was filtered (0.22μ). The supernatant with 6 μg/mL polybrene was added to the target cells. 24 hours later, the infected cells were selected using medium described before containing 600 μg/mL G418 for 10 days.
# CXCR4 = biological target: T1, CXCR4 (Homo sapiens, UniProt P61073); assay: Flow cytometry of cell surface expression of CXCR4 on transduced D17 CD4 CXCR4 cells; format: cell-based; conditions: D17 CD4 CXCR4 cells transduced with envelope vector; FIG. 6
# T1 construct: expressed in transfected cells; host or cells: D17 (dog) cells carrying CD4 and CXCR4
# Experimental: Method: Flow cytometric analysis was carried out of Cell Surface Expression (CSE) of CXCR4 of cells transduced with vectors comprising the chimeric envelope polypeptide of the present invention. D17 CD4 CXCR4 cells were transduced with a vector expressing SL3-2 envelope with V3 loop inserted at positions indicated.
# […]; 315:51-61). The virus containing supernatant was subsequently used to transduce the D17 CXCR4CD4 cells.
# Six chimeric variants have been tested (sequences used shown in SEQ ID NO: 3-8 and 42-47). In all panels the control D17 CD4 CXCR4 cells with […] envelope only (without the V3 insert) was tested against the same envelope comprising a V3 loop variant.
# Protocol for flow cytometry: • Harvest cells (by nice trypzination) and spin down gently (1200 rpm, 5 min) • Keep cells on ice in all subsequent steps. • Wash once in wash buffer (2% Serum, 98% PBS—cold) ? […]
# T1 sequence (P61073 whole entry): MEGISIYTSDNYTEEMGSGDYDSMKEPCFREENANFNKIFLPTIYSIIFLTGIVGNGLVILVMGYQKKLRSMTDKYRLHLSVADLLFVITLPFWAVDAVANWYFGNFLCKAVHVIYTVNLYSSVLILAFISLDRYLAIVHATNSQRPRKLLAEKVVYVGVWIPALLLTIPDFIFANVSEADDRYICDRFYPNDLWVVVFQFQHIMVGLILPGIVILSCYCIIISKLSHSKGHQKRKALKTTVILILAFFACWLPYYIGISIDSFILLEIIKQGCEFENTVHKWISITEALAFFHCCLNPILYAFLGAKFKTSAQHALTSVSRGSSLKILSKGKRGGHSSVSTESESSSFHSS
substance,measurement,setting,value
wild-type SL3-2: SL3-2 murine leukaemia virus envelope polypeptide (SEQ ID NO: 2 / 60) [reference compound],Infection of NIH mouse cells,NIH 3T3,can be infected
same,Binding of anti CXCR-4 antibody / CXCR-4 cell surface expression level,CXCR4,does not affect the expression levels of CXCR-4
